Our source for the maximum recommended daily dose (mmol/kg-bw/day) values is PubChem BioAssay AID1195 (EPA DSSTox, 2008).

Molecules are shown by their SMILES. Starred links: 1 amine or outer side, 2 acyl side, 3 side chain; linkers in the order of their positions; H or OH if unused. Positions of bridges follow the written chain, without caps; N, C: chain ends. Non-standard residues stand in square brackets, D forms with d. Residues, ends and D or L forms follow the SMILES beside them. *: point of attachment. X1 = NC1=N[C@@H]([C@H](N[*:1])C(=O)[*:2])C[C@H](O)N1; ΔAla(Z-3-ureido) = NC(=O)N/C=C(\N)C(=O)O; β3hOrn = NCCC[C@H](N)CC(=O)*; Dap = NC[C@H](N)C(=O)O

The data set relates to human maximum recommended daily dose, FDA database. Briefly: DSSTox (FDAMDD) FDA Maximum (Recommended) Daily Dose Database. As to conditions: stronger effect = lower value. In short, it runs like this: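 MRDD values come from clinical trials with daily oral dosing, usually for 3–12 months, for the average adult, in mg/day converted to mg/kg-bw/day assuming 60 kg. Antineoplastic mg/m2 doses are divided by 37. Activity score maps log10(1/MRDD mmol) onto 1–100.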

Setting [1] is: TherapeuticCategory: anthelmintic.
[2] abbreviates: TherapeuticCategory: anxiolytic.
Where [3] appears, read: TherapeuticCategory: analgesic, anti inflammatory.
The mark [4] stands for this setting: TherapeuticCategory: antibacterial.
Where [5] appears, read: TherapeuticCategory: narcotic analgesic.

For the molecule `C[C@@H]1C[C@H]2[C@@H]3CCC4=CC(=O)C=C[C@]4(C)[C@@]3(F)[C@@H](O)C[C@]2(C)[C@@]1(O)C(=O)CO`, the maximum recommended daily dose (mmol/kg-bw/day) (TherapeuticCategory: glucocorticoid, anti inflammatory) was 0.000382. Regarding `Cn1c(=O)c2[nH]cnc2n(C)c1=O`, the maximum recommended daily dose (mmol/kg-bw/day) (TherapeuticCategory: bronchodilator) was 0.0481.

Turning to `COC(=O)Nc1nc2ccc(C(=O)c3ccc(F)cc3)cc2[nH]1`, under setting [1], the maximum recommended daily dose (mmol/kg-bw/day) was 0.00533.

On to `CCC1C(C)=NN=C(c2ccc(OC)c(OC)c2)c2cc(OC)c(OC)cc21` (centres undefined), for which the maximum recommended daily dose (mmol/kg-bw/day) under setting [2] was 0.00654. As to `CC(=O)O[C@H]1C[C@@H]2CC[C@@H]3[C@H](CC[C@@]4(C)[C@H]3C[C@H]([N+]3(C)CCCCC3)[C@@H]4OC(C)=O)[C@@]2(C)C[C@@H]1[N+]1(C)CCCCC1`, under “TherapeuticCategory: skeletal muscle relaxant”, the maximum recommended daily dose (mmol/kg-bw/day) is 0.000136. Turning to `CCOc1ccc(NC(C)=O)cc1`, the maximum recommended daily dose (mmol/kg-bw/day) (TherapeuticCategory: anticonvulsant, analgesic, antipyretic) was 0.279. On to `CC(C)N=C(N)/N=C(\N)Nc1ccc(Cl)c(Cl)c1`, for which the maximum recommended daily dose (mmol/kg-bw/day) (TherapeuticCategory: antimalarial) was 0.00116. Turning to `Cc1cc2cc3c(C)cc(=O)oc3c(C)c2o1`, under “TherapeuticCategory: pigmentation agent”, the maximum recommended daily dose (mmol/kg-bw/day) is 0.000732. As to `O=C(Oc1ccccc1C(=O)O)c1ccccc1O`, the maximum recommended daily dose (mmol/kg-bw/day) under setting [3] was 0.258. With `C/C(=C(/CCO)SSCC1CCCO1)N(C=O)Cc1cnc(C)nc1N` (centres undefined), the maximum recommended daily dose (mmol/kg-bw/day) (TherapeuticCategory: enzyme cofactor) was 0.00419.

As for `CCCN[C@H]1CCc2nc(N)sc2C1`, the maximum recommended daily dose (mmol/kg-bw/day) (TherapeuticCategory: antiparkinsonian, dopamine receptor agonist) was 0.000473. Regarding `C=C1/C(=C/C=C2/CCC[C@]3(C)[C@@H]([C@H](C)CCCC(C)C)CC[C@@H]23)C[C@@H](O)C[C@@H]1O`, the maximum recommended daily dose (mmol/kg-bw/day) (TherapeuticCategory: vitamin D source) is 7.49e-06. For `OCc1ccccc1`, the maximum recommended daily dose (mmol/kg-bw/day) (TherapeuticCategory: none) is 0.0462. For the molecule `NC(=O)C1CCN(CCCN2c3ccccc3Sc3ccc(Cl)cc32)CC1`, the maximum recommended daily dose (mmol/kg-bw/day) (TherapeuticCategory: antiemetic) is 0.000622. On to `O[C@H]([C@H](O)[C@@H](O)CBr)[C@H](O)CBr`, for which the maximum recommended daily dose (mmol/kg-bw/day) (TherapeuticCategory: antineoplastic) was 0.0158. With `CCN1CC(CCN2CCOCC2)C(c2ccccc2)(c2ccccc2)C1=O` (centres undefined), for the setting “TherapeuticCategory: respiratory stimulant”, the maximum recommended daily dose (mmol/kg-bw/day) was 0.0106. Take `C=C1c2cccc(O)c2C(O)=C2C(=O)[C@]3(O)C(O)=C(C(N)=O)C(=O)[C@@H](N(C)C)[C@@H]3[C@@H](O)[C@H]12`: the maximum recommended daily dose (mmol/kg-bw/day) under setting [4] was 0.0339.

Consider `O=C1Nc2ccc(Cl)cc2C(c2ccccc2Cl)=NC1O` (centres undefined), for which the maximum recommended daily dose (mmol/kg-bw/day) under setting [2] is 0.00052.

For the molecule `CC(O)(P(=O)(O)O)P(=O)(O)O`, the maximum recommended daily dose (mmol/kg-bw/day) (TherapeuticCategory: calcium regulator) is 0.0971. As for `CC(CN(C)C)C(C)(O)Cc1ccc(Cl)cc1` (centres undefined), the maximum recommended daily dose (mmol/kg-bw/day) (TherapeuticCategory: antitussive) was 0.0156. `NCCC[C@H](N)CC(=O)N[C@H]1CNC(=O)[C@H]([C@H]2C[C@H](O)NC(N)=N2)NC(=O)/C(=C/NC(N)=O)NC(=O)[C@H](CO)NC(=O)[C@H](CO)NC1=O` (β3hOrn-[Dap]SS[ΔAla(Z-3-ureido)][X1]; lactam 1-C): the maximum recommended daily dose (mmol/kg-bw/day) under setting [4] is 0.0973. In the case of `Cc1ccc(C(=O)c2cc(O)c(O)c([N+](=O)[O-])c2)cc1`, for the setting “TherapeuticCategory: antidepressant, catechol-O-methyltransferase inhibitor”, the maximum recommended daily dose (mmol/kg-bw/day) was 0.0122.

On to `COC12CC[C@@]3(C[C@@H]1[C@](C)(O)C(C)(C)C)[C@H]1Cc4ccc(O)c5c4[C@@]3(CCN1CC1CC1)[C@H]2O5`, for which, under setting [5], the maximum recommended daily dose (mmol/kg-bw/day) was 0.00114. As to `CCOC(=O)C1=C(C)NC(C)=C(C(=O)OC)C1c1cccc(Cl)c1Cl` (centres undefined), the maximum recommended daily dose (mmol/kg-bw/day) (TherapeuticCategory: antihypertensive, antianginal) is 0.000867. Consider `NCCS`, for which, where the note is “TherapeuticCategory: antidote to acetaminophen”, the maximum recommended daily dose (mmol/kg-bw/day) was 0.432. `O=C(O)c1cc(-c2ccc(F)cc2F)ccc1O`: the maximum recommended daily dose (mmol/kg-bw/day) under setting [3] is 0.0999. As for `CCN(CC)C(=O)N1CCN(C)CC1`, the maximum recommended daily dose (mmol/kg-bw/day) under setting [1] was 0.0301. As to `COc1cc2c(cc1OC)C(Cc1cc(OC)c(OC)c(OC)c1)[N+](C)(CCCOC(=O)CC/C=C/CCC(=O)OCCC[N+]1(C)CCc3cc(OC)c(OC)cc3C1Cc1cc(OC)c(OC)c(OC)c1)CC2` (centres undefined), where the note is “TherapeuticCategory: skeletal muscle relaxant, neuromuscular blocker”, the maximum recommended daily dose (mmol/kg-bw/day) was 0.000227. Consider `CN(C)c1ccc2nc3ccc(=[N+](C)C)cc-3sc2c1`, for which the maximum recommended daily dose (mmol/kg-bw/day) (TherapeuticCategory: antimethemoglobinemic) was 0.0203. For `CNC1(c2ccccc2Cl)CCCCC1=O` (centres undefined), where the note is “TherapeuticCategory: anesthetic”, the maximum recommended daily dose (mmol/kg-bw/day) was 0.00841.

As for `NC(=O)N1c2ccccc2C=Cc2ccccc21`, the maximum recommended daily dose (mmol/kg-bw/day) (TherapeuticCategory: analgesic, anticonvulsant) was 0.113. Turning to `NC(N)=NCCN1CCCCCCC1`, the maximum recommended daily dose (mmol/kg-bw/day) (TherapeuticCategory: antihypertensive) was 0.0042. Turning to `COc1ccc2c3c1O[C@H]1C(=O)CC[C@@]4(O)[C@@H](C2)N(C)CC[C@]314`, the maximum recommended daily dose (mmol/kg-bw/day) under setting [5] was 0.0169. In the case of `COc1cccc([C@@]2(O)CCCC[C@@H]2CN(C)C)c1`, under “TherapeuticCategory: analgesic”, the maximum recommended daily dose (mmol/kg-bw/day) was 0.0253.
